Here are results for 1 molecule from patent US20230097883A1, “ERGOTHIONEINE PET COMPOUNDS AND METHODS OF USE THEREOF” (VANDERBILT UNIVERSITY, priority 2021, published 2023).

This series can be described thus: Ex-vivo cut-and-count whole-body biodistribution of I.V.-injected [11C]ERGO in WT mice. Details: species or system mouse. The conditions noted are these: for brain concentration: after cardiac perfusion. The protocol: At 5 or 10 min post injection, anesthetized mice were laid on the shallow tray filled with crushed ice and the thoracic cavity was accessed using a scalpel after making […] mid-line incision from the abdominal area. After careful separation of the liver from the diaphragm, the thoracic opening was stabilized with a retractor. Perfusion was performed as we described in the past. Following removal of air bubbles, approximately 30 mL (pH7.4) of ice-cold PBS buffer is slowly injected in the left ventricle toward the ascending aorta using a 25-G syringe while the right atrium was snipped off using a curved point squeeze snip scissors to facilitate drainage of the systemic venous return. Then, 30 mL of 4% paraformaldehyde (PFA, pH 7.4) was perfused. When completed, tissues were harvested and weighed before counting using the automatic gamma counter (Hidex).
Cohorts of WT mice were injected with [^11C]ERGO probe, followed by cardiac perfusion 5 (n=5), 10 (n=5) and 30 (n=6) minutes after injection before tissues were collected for activity counting.

The mark [1] stands for this setting: about 30 minutes after injection.
Setting [2] is: initial value (5 minutes post I.V. injection).

For `C[N+](C)([11CH3])[C@@H](Cc1c[nH]c(=S)[nH]1)C(=O)[O-]` [[^11C]ERGO], under setting [1], the blood concentration was 0.33 % ID/g, the eyes concentration is recorded as 0.52 % ID/g, the heart concentration was determined as 0.51 % ID/g and the kidneys concentration came out at 4.2 % ID/g. Under setting [1], the liver concentration was determined as 2.86 % ID/g, the small intestine concentration is on record as 0.64 % ID/g, the spleen concentration was 0.97 % ID/g and the brain concentration was found to be 0.35 % ID/g. Under setting [2], this molecule returned a blood concentration of 0.39 % ID/g, an eyes concentration of 0.11 % ID/g, a heart concentration of 0.13 % ID/g and a kidneys concentration of 1.33 % ID/g. Under setting [2], this molecule yielded a liver concentration of 0.61 % ID/g, a small intestine concentration of 0.2 % ID/g, a spleen concentration of 0.2 % ID/g and a brain concentration of 0.13 % ID/g.
